Assays:
[1] = test system: PC3 cells; experiment: Cell metabolism inhibition assay (Cell titre Blue) with fatty acids; assay type: cell-based; conditions: 100% = undrugged media
Protocol: A cell metabolism inhibition assay was performed to determine the effect of different fatty acids on cellular metabolic rate. The fatty acids tested were α-Linolenic acid, omega 3 fatty acid (ALA), Arachidonic acid, omega 6 fatty acid (AA), 9Z, 11E conjugated Linoleic acid, omega 7 fatty acid (CLA), Docosahexaenoic acid, omega 3 fatty acid (DHA), Eicosapentaenoic acid, omega 3 fatty acid (EPA), Oleic acid, omega 9 fatty acid (OA), Ricinoleic acid, omega 9 hydroxylated fatty acid (RA).
PC3 cells are from a cell line derived from a hormone refractory prostate cancer and are known to overexpress HSD10. PC3 cells were seeded at a density of 4,000 cells per well in a 96 well plate, and incubated at 37° C., 5% CO2 for 48 hours in standard growth media (F12K nutrient media, 7% Fetal Calf Serum, 2 mM L-Glutamine, 45 mg/L ascorbic acid). The media was then removed by pipette and replaced with the appropriate drug treatment as follows: 20 μM, or 40 μM, or 60 μM, or 80 μM, or 100 μM ALA in PC3 treatment media (F12K nutrient media, 125 uM fatty acid free BSA, 2 mM L-Glutamine, 45 mg/L ascorbic acid); 20 μM, or 40 μM, or 60 μM, or 80 μM, or 100 μM AA in PC3 treatment media; 20 μM, or 40 μM, or 60 μM, or 80 μM, or 100 μM CLA in PC3 treatment media; 20 μM, or 40 μM, or 60 μM, or 80 μM, or 100 μM DHA in PC3 treatment media; 20 μM, or 40 μM, or 60 μM, or 80 μM, or 100 μM EPA in PC3 treatment media; 20 μM, or 40 μM, or 60 μM, or 80 μM, or 100 μM OA in PC3 treatment media; and 20 μM, or 40 μM, or 60 μM, or 80 μM, or 100 μM RA in PC3 treatment media. After incubation in the drug treatment for 72 hours at 37° C., 5% CO2, 50 μL Cell titre Blue Assay Reagent was added to each well and the plate return to incubation at 37° C., 5% CO2, for a further 24 hours, at which time the absorbance at 620 nm was recorded. The reduction of absorbance at 620 nm represents a higher metabolic rate, and the data below has been normalized such that 100% represents cells that have been grown in the presence of undrugged media, and 0% represents wells containing no cells.

[2] = test system: PC3 cells; experiment: Cell growth inhibition, lysed cell LDH assay, prostate cancer cell line; assay type: cell-based;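 note: 100% is cells receiving no drug treatment and 0% is wells without cells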
Protocol: To determine whether Risperidone could be effective in inhibiting growth of cancer cells overexpressing HSD10, a lysed cell LDH assay was conducted using cells from a PC3 cell line.
PC3 cells are from a cell line derived from a hormone refractory prostate cancer and are known to overexpress HSD10. […] Cells line tests were carried out in presence and absence of testosterone for comparison. After incubation in the drug treatment for 96 hours at 37° C., 5% CO2, the supernatant was removed from all wells of cells, and cells washed with 200 μL PBS.
(§1) After removal of the PBS, cell number was determined using a lysed cell LDH assay (CytoTox 96 Non-radioactive cytotoxicity assay (LDH Assay); Promega, Co., Madison Wis.). Cells were lysed with 0.9% Triton-X in PBS for 2 hours at 37° C., 5% CO2 and 50 μL of this cell lysate was transferred to a fresh 96 well plate. About 50 μL of CytoTox 96 assay reagent was added to the transferred cell lysate and this mixture was incubated at room temperature in the dark for 20 minutes. After the addition of 50 μL stop reagent, the optical absorbance was determined for each incubated mixture at 492 nm. […] The mean and standard error was calculated from at least 3 wells.
To determine the optimal concentration of Risperidone and CLA necessary to inhibit cell growth, a lysed cell LDH assay was conducted using various concentration of Risperidone and CLA. PC3 cells were cultured and a lysed cell LDH assay was conducted as described above, except that the various drug treatments evaluated contained either 0 μM, 12.5 μM, 25 μM, or 50 μM Risperidone in combination with 0 μM, 6.25 μM, 12.5 μM, 25 μM, 50 μM, or 100 μM CLA (see Table 3).
as §1, with “PBS from the cell cultures described above,” for “PBS,”, “assay.” for “assay (CytoTox 96 Non-radioactive cytotoxicity assay (LDH Assay); Promega, Co., Madison Wis.).”

[3] = test system: A549 cells; experiment: Cell growth inhibition, lysed cell LDH assay, lung cancer cell line; assay type: cell-based; conditions: A549; 50 μM Risperidone and/or 50 μM CLA, 1 μM Testosterone (T) where added; 96 hours
Protocol: To determine whether Risperidone alone, or in combination with CLA could inhibit cell growth of cells taken from a lung cancer cell line overexpressing HSD10, A549 cells were seeded at a density of 2,000 cells per well in a 96 well plate, and incubated at 37° C., 5% CO2 for 48 hours in standard growth media (DMEM nutrient media, 10% Fetal Calf Serum, 2 mM L-Glutamine). The media was then removed by pipette and replaced with the appropriate drug treatment as follows: 50 μM Risperidone in A459 treatment media (DMEM nutrient media, 125 uM fatty acid free BSA, 2 mM L-Glutamine); 50 μM CLA in A459 treatment media; 50 μM Risperidone and 50 μM CLA in A459 treatment media; 50 μM Risperidone and 1 μM Testosterone in A459 treatment media; 50 μM Risperidone, 50 μM CLA, and 1 μM Testosterone in A459 treatment media. After incubation in the drug treatment for 96 hours at 37° C., 5% CO2, the supernatant was removed from all wells of cells, and cells washed with 200 μL PBS.
After removal of the PBS from the cell cultures described above, cell number was determined using a lysed cell LDH assay. Cells were lysed with 0.9% Triton-X in PBS for 2 hours at 37° C., 5% CO2 and 50 μL of this cell lysate was transferred to a fresh 96 well plate. About 50 μL of CytoTox 96 assay reagent was added to the transferred cell lysate and this mixture was incubated at room temperature in the dark for 20 minutes. After the addition of 50 μL stop reagent, the optical absorbance was determined for each incubated mixture at 492 nm. The percentage cell number was calculated by normalizing the experimental counts, where 100% is set to cells receiving no drug treatment, and 0% is set to readings from wells containing no cells. The mean and standard error was calculated from at least 3 wells.

[4] = test system: MCF7 cells; experiment: Cell growth inhibition, lysed cell LDH assay, breast cancer cell line; assay type: cell-based; conditions: 50 μM Risperidone and/or 50 μM CLA, 1 μM Testosterone (T) where added, 96 hours;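 note: 100% is cells receiving no drug treatment and 0% is wells without cells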
Protocol: (§2) To determine whether Risperidone could be effective in inhibiting growth of cancer cells overexpressing HSD10, a lysed cell LDH assay was conducted using cells taken from a prostate cancer cell line, a lung cancer cell line, a breast cancer cell line, an ovarian cancer cell line, each of which was known to overexpress HSD10, and a non-cancerous cell line.
(§3) After incubation in the drug treatment for 96 hours at 37° C., 5% CO2, the supernatant was removed from all wells of cells, and cells washed with 200 μL PBS.
as §1, with “PBS from the cell cultures described above,” for “PBS,”, “assay.” for “assay (CytoTox 96 Non-radioactive cytotoxicity assay (LDH Assay); Promega, Co., Madison Wis.).”

[5] = test system: OVCAR-3 cells; experiment: Cell growth inhibition, lysed cell LDH assay, ovarian cancer cell line; assay type: cell-based; conditions: 50 μM Risperidone and/or 50 μM CLA, 1 μM Testosterone (T) where added, 96 hours;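 note: 100% is cells receiving no drug treatment and 0% is wells without cells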
Protocol: as §2, §3
as §1, with “PBS from the cell cultures described above,” for “PBS,”, “assay.” for “assay (CytoTox 96 Non-radioactive cytotoxicity assay (LDH Assay); Promega, Co., Madison Wis.).”

[6] = test system: VERO cells; experiment: Cell growth inhibition, lysed cell LDH assay, non-cancerous cell line; assay type: cell-based;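 for effect on growth of cells from the non-cancerous cell line VERO: 100% is cells receiving no drug treatment and 0% is wells without cells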
Protocol: as §2, §3
as §1, with “PBS from the cell cultures described above,” for “PBS,”, “assay.” for “assay (CytoTox 96 Non-radioactive cytotoxicity assay (LDH Assay); Promega, Co., Madison Wis.).”

[7] = test system: PC-3M-luc cells; experiment: Orthotopic prostate tumor mouse xenograft model; conditions: single drug
Protocol: Immunodeficeint male mice (athymic nude mice) were acclimated to the laboratory for at least one week prior to implantation of tumor. PC-3M-luc cells obtained directly from in vitro culture were then injected into the prostate on Day 0. Animals were divided into six groups of 12 mice each. Primary tumor size and metastases were assessed by bioluminescence measurements on day 6, 13, 20, 27, 34, and 40. On day 7 a five week treatment regime was initiated. Both individual drug and high and low dose combination were examined by administering the drugs twice daily on an individual body weight basis using a dose escalation protocol (Table 7). If tumors grew above a pre-determined level, or mice lost more than 10% of bodyweight, they were culled. The primary tumor was excised, weighed and measured. Individual organs were imaged to assess metastatic burden.

## CCCCCC/C=C/C=C\CCCCCCCC(=O)O [CLA, 9Z, 11E conjugated Linoleic acid]
[1]; 20 μM fatty acid
  Cellular Metabolic Activity: 86 ± 2.4%
[1]; 40 μM fatty acid
  Cellular Metabolic Activity: 71 ± 3.8%
[1]; 60 μM fatty acid
  Cellular Metabolic Activity: 59 ± 2.8%
[1]; 80 μM fatty acid
  Cellular Metabolic Activity: 63 ± 4.0%
[1]; 100 μM fatty acid
  Cellular Metabolic Activity: 67 ± 5.0%
[2]; 0 μM Risperidone, 6.25 μM CLA (Table 4)
  Percentage of Lysed Cells: 96 ± 0.7%
[2]; 0 μM Risperidone, 12.5 μM CLA (Table 4)
  Percentage of Lysed Cells: 90 ± 2.7%
[2]; 0 μM Risperidone, 25 μM CLA (Table 4)
  Percentage of Lysed Cells: 112 ± 9.5%
[2]; 0 μM Risperidone, 50 μM CLA (Table 4)
  Percentage of Lysed Cells: 103 ± 9.3%
[2]; 0 μM Risperidone, 100 μM CLA (Table 4)
  Percentage of Lysed Cells: 66 ± 11.8%
[2]; 12.5 μM of each drug, 96 hours, 100% = no drug treatment (Table 3)
  Percentage of Lysed Cells: 109 ± 0.56%
[2]; 25 μM of each drug, 96 hours, 100% = no drug treatment (Table 3)
  Percentage of Lysed Cells: 112 ± 1.1%
[2]; 50 μM
  growth inhibition of PC3 cells: no effect alone
[2]; 50 μM of each drug, 96 hours, 100% = no drug treatment (Table 3)
  Percentage of Lysed Cells: 107 ± 2.4%
[2]; PC3, 50 μM Risperidone and/or 50 μM CLA, 1 μM Testosterone (T) where added, 96 hours (Table 5)
  Percentage of Lysed Cells: 107 ± 2.4%
[3]
  Percentage of Lysed Cells: 4.5 ± 0.3%
[4]
  Percentage of Lysed Cells: 56 ± 2.6%
[5]
  Percentage of Lysed Cells: 87 ± 6.0%
[6]; 50 μM
  effect on growth of cells from the non-cancerous cell line VERO: neither Risperidone nor CLA had any measurable effect
[6]; VERO, 50 μM Risperidone and/or 50 μM CLA, 1 μM Testosterone (T) where added, 96 hours
  Percentage of Lysed Cells: 98 ± 2.7%
[7]; by Day 40
  body weight throughout the study: maintained a constant weight
[7]; by day 34
  animal loss: about 10%
[7]; calculated on Day 34, dosing per Table 7, listed as Rumenic Acid
  Tumor Growth Inhibition: 21%
[7]; day 40, dosing per Table 7, listed as Rumenic Acid
  Animal Survival (overall survivorship): 45%

— US10111877B2, “Modulators of androgen synthesis” (Tangent Reprofiling Limited, priority 2012, dated 2018)
